Experimental data taken from ChEMBL document CHEMBL1201862, “PubChem BioAssay data set” (2004).
Calls of active or inactive are those of the source.

How the values were obtained:
[1] = system: HEK293; experiment: cells; assay type: functional, cell-based; conditions: Homo sapiens
[2] = system: INS1; experiment: beta cell apoptosis inhibitors, cytokine rescue, dose response, luminescence, retest (AID 449756); assay type: functional, cell-based; conditions: Rattus norvegicus;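 further: cell death triggered by IL-1 beta plus TNF-alpha plus IFN-gamma mixture; protective hits raise ATP signal compared with cytokine alone wells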
[3] = system: HEK293; experiment: NOD2 signaling inhibitors in MDP-stimulated cells, cell-based, uHTS, luminescence (AID 2001); assay type: functional; conditions: Homo sapiens
[4] = biological target: T1, Streptokinase A (Streptococcus pyogenes serotype M1, UniProt P10520); experiment: S. pyogenes streptokinase expression inhibitors, potency, dose response, plasminogen activation absorbance, OD405 (AID 1914); assay type: functional, Streptococcus pyogenes M1 GAS;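 further: secreted streptokinase activity via plasminogen activation per viability signal from cell pellet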
T1 sequence (P10520 whole entry): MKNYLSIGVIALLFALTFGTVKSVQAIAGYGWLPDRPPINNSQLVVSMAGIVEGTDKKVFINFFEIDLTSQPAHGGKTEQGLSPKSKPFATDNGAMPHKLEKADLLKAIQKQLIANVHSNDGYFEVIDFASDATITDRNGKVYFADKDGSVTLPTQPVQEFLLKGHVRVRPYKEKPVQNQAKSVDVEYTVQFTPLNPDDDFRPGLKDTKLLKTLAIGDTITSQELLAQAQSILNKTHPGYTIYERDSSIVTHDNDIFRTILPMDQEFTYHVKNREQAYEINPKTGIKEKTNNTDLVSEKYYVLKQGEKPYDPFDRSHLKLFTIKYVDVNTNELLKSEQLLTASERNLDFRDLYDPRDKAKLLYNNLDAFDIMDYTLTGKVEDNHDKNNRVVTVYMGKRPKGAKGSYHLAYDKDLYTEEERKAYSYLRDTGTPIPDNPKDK

[5] = system: Streptococcus sp. 'group A'; experiment: growth inhibition of control SK(-) GAS strain, dose response, counter-screen for streptokinase expression inhibitor project, luminescence, kanamycin, BacTiterGlo, confirmation (AID 1900); assay type: functional, organism-based
[6] = system: HEK293; experiment: NOD1 signaling inhibitors, primary screen, cell-based, luminescence, uHTS (AID 1578); assay type: functional; conditions: Homo sapiens
[7] = system: HEK293; experiment: cells; assay type: functional, cell-based; conditions: Homo sapiens; remark: listed apart in the source
[8] = system: Streptococcus; experiment: Group A Streptococcus viability loss, dose response, counter-screen for streptokinase expression inhibitor project, luminescence, BacTiterGlo (AID 1915); assay type: functional, organism-based;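 further: potency for reduction of bacterial viability or growth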
[9] = human group III sPLA2 inhibitors, dose response, biochemical, QFRET, IC50 (AID 743457);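 further: green fluorescence rise as the enzyme cleaves BODIPY PC-A2 in liposomes; potency for inhibition of the enzyme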
[10] = biological target: T2, Corticotropin-releasing factor receptor 2/Corticotropin-releasing factor-binding protein (Homo sapiens, UniProt P24387+Q13324); experiment: activators of CRF receptor 2 with binding protein – uHTS hits, confirmation (AID 602473); assay type: functional; conditions: read-out: EC50_Mean
T2 sequence (Q13324 whole entry): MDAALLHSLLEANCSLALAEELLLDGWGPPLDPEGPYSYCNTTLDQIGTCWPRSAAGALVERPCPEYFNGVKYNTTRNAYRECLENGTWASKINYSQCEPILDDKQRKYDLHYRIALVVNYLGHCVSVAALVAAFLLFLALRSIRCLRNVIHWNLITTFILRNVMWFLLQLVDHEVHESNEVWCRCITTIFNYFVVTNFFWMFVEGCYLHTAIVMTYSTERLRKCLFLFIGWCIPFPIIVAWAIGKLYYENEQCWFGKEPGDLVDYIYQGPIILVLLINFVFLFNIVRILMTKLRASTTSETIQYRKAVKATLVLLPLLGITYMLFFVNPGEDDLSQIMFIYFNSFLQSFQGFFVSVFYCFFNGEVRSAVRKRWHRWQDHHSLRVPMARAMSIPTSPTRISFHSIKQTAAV
T2 sequence (P24387 whole entry): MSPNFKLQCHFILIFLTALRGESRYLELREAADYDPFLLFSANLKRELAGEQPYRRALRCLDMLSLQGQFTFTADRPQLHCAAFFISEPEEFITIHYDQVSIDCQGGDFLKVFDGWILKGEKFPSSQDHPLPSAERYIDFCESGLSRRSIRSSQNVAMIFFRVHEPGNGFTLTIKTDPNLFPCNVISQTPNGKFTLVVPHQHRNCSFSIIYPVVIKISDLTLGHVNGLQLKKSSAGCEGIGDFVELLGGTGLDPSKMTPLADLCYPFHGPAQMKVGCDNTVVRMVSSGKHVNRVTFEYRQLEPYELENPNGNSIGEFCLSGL

[11] = biological target: T3, Short transient receptor potential channel 4 (Mus musculus, UniProt Q9QUQ5); experiment: mouse TRPC4 channel activators, dose response, cell-based, HEK293 TRPC4/mu-opioid, Fluo-4 calcium (AID 434937); assay type: functional
T3 sequence (Q9QUQ5 whole entry): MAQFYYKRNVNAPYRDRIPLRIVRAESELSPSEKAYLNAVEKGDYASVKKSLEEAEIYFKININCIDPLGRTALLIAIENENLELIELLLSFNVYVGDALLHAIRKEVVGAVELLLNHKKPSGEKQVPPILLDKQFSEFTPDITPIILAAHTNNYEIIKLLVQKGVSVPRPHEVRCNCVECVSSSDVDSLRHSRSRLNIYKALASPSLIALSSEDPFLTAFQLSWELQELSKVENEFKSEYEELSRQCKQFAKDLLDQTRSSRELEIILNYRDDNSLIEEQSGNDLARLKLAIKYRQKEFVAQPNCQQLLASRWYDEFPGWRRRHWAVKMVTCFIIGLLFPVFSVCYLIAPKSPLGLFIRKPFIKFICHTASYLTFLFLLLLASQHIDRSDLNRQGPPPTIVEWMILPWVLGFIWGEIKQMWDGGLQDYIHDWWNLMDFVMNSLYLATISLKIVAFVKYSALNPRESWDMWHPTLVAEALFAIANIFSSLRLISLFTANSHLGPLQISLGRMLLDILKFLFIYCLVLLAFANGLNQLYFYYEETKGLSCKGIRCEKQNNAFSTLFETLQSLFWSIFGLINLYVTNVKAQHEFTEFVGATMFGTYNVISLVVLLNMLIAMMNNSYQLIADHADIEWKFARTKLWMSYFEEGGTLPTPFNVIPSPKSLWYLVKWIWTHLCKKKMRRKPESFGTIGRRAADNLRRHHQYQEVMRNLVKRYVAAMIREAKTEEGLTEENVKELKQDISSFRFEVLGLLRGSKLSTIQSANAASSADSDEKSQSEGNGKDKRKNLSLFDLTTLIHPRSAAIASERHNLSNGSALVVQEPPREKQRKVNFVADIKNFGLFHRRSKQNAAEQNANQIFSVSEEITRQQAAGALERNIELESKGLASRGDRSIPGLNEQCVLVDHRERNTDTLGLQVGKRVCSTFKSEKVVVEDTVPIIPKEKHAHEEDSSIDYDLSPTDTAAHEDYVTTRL

[12] = system: Vero; experiment: cells; assay type: functional; conditions: Chlorocebus sabaeus
[13] = biological target: T4, High affinity choline transporter 1 (Homo sapiens, UniProt Q9GZV3); experiment: CHT inhibitors, dose response, cell-based, 5-point CRC, membrane potential dye (AID 504840); assay type: functional
T4 sequence (Q9GZV3 whole entry): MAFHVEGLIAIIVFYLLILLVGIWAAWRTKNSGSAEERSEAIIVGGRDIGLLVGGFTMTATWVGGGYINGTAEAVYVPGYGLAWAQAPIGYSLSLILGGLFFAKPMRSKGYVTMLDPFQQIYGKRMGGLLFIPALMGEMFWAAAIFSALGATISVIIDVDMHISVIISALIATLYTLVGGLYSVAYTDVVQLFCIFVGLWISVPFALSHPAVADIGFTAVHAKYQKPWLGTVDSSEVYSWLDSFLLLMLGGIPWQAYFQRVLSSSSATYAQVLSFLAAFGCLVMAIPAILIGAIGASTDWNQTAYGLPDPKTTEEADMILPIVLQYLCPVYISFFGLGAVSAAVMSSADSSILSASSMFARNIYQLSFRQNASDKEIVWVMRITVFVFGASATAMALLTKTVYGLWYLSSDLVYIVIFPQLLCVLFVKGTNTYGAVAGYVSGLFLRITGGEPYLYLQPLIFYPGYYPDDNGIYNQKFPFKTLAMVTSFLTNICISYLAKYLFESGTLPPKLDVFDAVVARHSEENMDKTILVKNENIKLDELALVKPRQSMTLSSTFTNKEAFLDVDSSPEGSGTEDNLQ

[14] = biological target: Nonstructural protein 1 (Influenza A virus, UniProt Q194T2); assay type: functional, Influenza A virus (A/California/07/2009(H1N1))
[15] = microbe, parasite or virus in culture; assay type: functional; conditions: Mycobacterium tuberculosis
[16] = Luminescence Cell-Based Dose Response HTS to Identify Inhibitors of 5'UTR Stem-Loop Driven Prion Protein mRNA Translation in H4 Neuroglioblastoma Cells. [Related pubchem assays: 1827 (Project Summary), 1813 (Primary HTS)]; assay type: functional
[17] = inhibitors of SNCA 5'UTR-driven reporter translation, confirmation, H4 neuroglioma cells, luminescence (AID 1988); assay type: functional, cell-based
[18] = cytotoxicity in HEK-293T cells, dose response, cytotoxicity control for TCR NF-kB inhibitor project, luminescence, T-cell screen hits (AID 489026); assay type: functional, cell-based;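 further: cells exposed to compound about 14 hours before the viability readout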
[19] = inhibitors of firefly luciferase expression or activity, dose response, H4 neuroglioma cells, luminescence (AID 1990); assay type: functional, cell-based
[20] = Luminescence Cell-Based Dose Retest to Confirm Inhibitors of Cancer Stem Cells. [Related pubchem assays (depositor defined):AID2717, AID2721]; assay type: functional; conditions: Homo sapiens

Sequence of Nonstructural protein 1 (Q194T2 whole entry): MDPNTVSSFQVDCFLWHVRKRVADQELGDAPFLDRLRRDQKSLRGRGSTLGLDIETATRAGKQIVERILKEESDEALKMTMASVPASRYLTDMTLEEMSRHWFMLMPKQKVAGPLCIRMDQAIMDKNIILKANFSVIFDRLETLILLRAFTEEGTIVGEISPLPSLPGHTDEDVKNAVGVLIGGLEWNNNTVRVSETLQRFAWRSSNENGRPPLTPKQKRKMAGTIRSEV

O=C(Nc1ccc([N+](=O)[O-])cc1)Nc1ccc(Cl)cc1F
IC50 [1]: > 20 µM (inactive)
AC50 [2]: 3.73 µM (active)
IC50 [3]: 3.26 µM (inactive)
EC50 [4]: > 150 µM (not active)
EC50 [5]: > 150 µM (not active)
EC50 [6]: 18.7 µM (active)
IC50 [7]: 3.12 µM (active)
EC50 [8]: > 150 µM (not active)

O=C(NNC(=S)NC(=O)c1ccccc1Cl)c1cccc([N+](=O)[O-])c1
IC50 [9]: 22.3 µM (inactive)
EC50 [10]: 11.2 µM (active)
EC50 [11]: 5.96 µM (active)
CC50 [12]: > 25 µM (active)

Cc1ccc(C(=O)CSc2nnc(-c3ccco3)n2C)cc1
IC50 [13]: 9.62 µM (active)

N#CC(C#N)=c1ccc2c(c1)N1C3=C(CCCC3)CC3CCCCC31N=2 (stereo unspecified)
IC50 [14]: 11.2 µM (active)
CC50 [15]: 29.5 µM (active)
IC50 [13]: 11 µM (active)

COc1ccccc1NC(=O)C1=C(C)Nc2nc3ccccc3n2C1c1cccs1 (stereo unspecified)
EC50 [16]: 9.88 µM (active)
EC50 [17]: 5.03 µM (active)
IC50 [18]: > 80 µM (inactive)
EC50 [19]: 7.89 µM (inconclusive)

O=C(Nc1ccc(S(=O)(=O)N2CCOCC2)cc1)c1cc(-c2cc(Cl)ccc2O)n[nH]1
IC50 [1]: 7.45 µM (active)
AC50 [20]: 0.962 µM (active)
IC50 [3]: 6.8 µM (active)
EC50 [6]: > 20 µM (inactive)
IC50 [7]: 6.05 µM (active)
CC50 [12]: 10.9 µM (active)
